What all share (assay): relative viability (nuclei count vs DMSO), 5 days (fraction); higher = more cells survive
Compound in assay [1]: C[C@]1(c2nc3c(C(N)=O)cccc3[nH]2)CCCN1 [Veliparib] + Cc1nc(NC(=O)N2CCC[C@H]2C(N)=O)sc1-c1ccnc(C(C)(C)C(F)(F)F)c1 [Alpelisib] (partner 2 µM)
A digest of the protocol:
(§1)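 Values are medians from duplicate plates. Each reflects relative viability, defined as the nuclei count of treated wells over that of vehicle wells. Lung cancer cell lines in 1536-well plates were pin-tool dosed one day after seeding with one drug alone or with a fixed anchor-drug dose plus five library-drug doses (not always all listed) in √10 steps, then fixed, stained and imaged at 4× after 5 days.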

Compound in assay [2]: COC1=CC=C(C=C1)CN2C=CC3=C2C=C(C=C3)C(=O)NO + NC(=O)Nc1cc(-c2cccc(F)c2)sc1C(=O)N[C@H]1CCCNC1 [AZD7762] (partner 0.2 µM)
Put shortly:
as §1

Compound in assay [3]: COC1=CC=C(C=C1)CN2C=CC3=C2C=C(C=C3)C(=O)NO + COc1cccc2cc(-c3nc([C@H]4CC[C@H](C(=O)O)CC4)n4ncnc(N)c34)[nH]c12 [OSI-027] (partner 0.5 µM)
Put shortly:
as §1

Compound in assay [4]: COC1=CC=C(C=C1)CN2C=CC3=C2C=C(C=C3)C(=O)NO + Cc1cc(Nc2cc(N3CCN(C)CC3)nc(Sc3ccc(NC(=O)C4CC4)cc3)n2)n[nH]1 [Tozasertib] (partner 0.1 µM)
Put shortly: as §1

Consider NCI-H1944, for which the relative viability in assay [1] (first compound 0.02 µM) was found to be 0.792; in assay [1] (first compound 0.06325 µM), 0.849; in assay [1] (first compound 0.2 µM), 0.752; in assay [1] (first compound 0.6325 µM), 0.818; in assay [1] (first compound 2 µM), 0.756; in assay [2] (first compound 0.253 µM), 0.516. Further, the relative viability in assay [2] (first compound 0.8 µM) worked out at 0.481; in assay [2] (first compound 2.53 µM), 0.475; in assay [2] (first compound 8 µM) it was 0.428; in assay [3] (first compound 0.253 µM), 0.427; in assay [3] (first compound 0.8 µM), 0.401; in assay [3] (first compound 2.53 µM) it was 0.407. The relative viability was determined as 0.375 in assay [3] (first compound 8 µM); 0.262 in assay [4] (first compound 0.253 µM); 0.261 in assay [4] (first compound 0.8 µM); 0.262 in assay [4] (first compound 2.53 µM); 0.234 in assay [4] (first compound 8 µM).

As for NCI-H1734, the relative viability in assay [1] (first compound 0.02 µM) was determined as 0.734; in assay [1] (first compound 0.06325 µM) it was 0.569; in assay [1] (first compound 0.2 µM), 0.705; in assay [1] (first compound 0.6325 µM), 0.667; in assay [1] (first compound 2 µM), 0.744; in assay [2] (first compound 0.253 µM), 0.612. Moreover, the relative viability was found to be 0.559 in assay [2] (first compound 0.8 µM); 0.567 in assay [2] (first compound 2.53 µM); 0.481 in assay [2] (first compound 8 µM); 0.641 in assay [3] (first compound 0.253 µM); 0.558 in assay [3] (first compound 0.8 µM); 0.608 in assay [3] (first compound 2.53 µM). Moreover, the relative viability in assay [3] (first compound 8 µM) turned out to be 0.527; in assay [4] (first compound 0.253 µM), 0.236; in assay [4] (first compound 0.8 µM) it was 0.242; in assay [4] (first compound 2.53 µM) it was 0.251; in assay [4] (first compound 8 µM), 0.23.

Consider H3255, for which the relative viability worked out at 0.656 in assay [1] (first compound 0.02 µM); 0.841 in assay [1] (first compound 0.06325 µM); 0.679 in assay [1] (first compound 0.2 µM); 0.522 in assay [1] (first compound 0.6325 µM); 0.701 in assay [1] (first compound 2 µM); 0.925 in assay [2] (first compound 0.08 µM). Moreover, the relative viability in assay [2] (first compound 0.253 µM) came out at 0.774; in assay [2] (first compound 0.8 µM) it was 0.831; in assay [2] (first compound 2.53 µM), 0.843; in assay [2] (first compound 8 µM), 0.744; in assay [3] (first compound 0.08 µM) it was 0.473; in assay [3] (first compound 0.253 µM), 0.58. In addition, the relative viability was 0.606 in assay [3] (first compound 0.8 µM); 0.545 in assay [3] (first compound 2.53 µM); 0.553 in assay [3] (first compound 8 µM); 0.457 in assay [4] (first compound 0.08 µM); 0.393 in assay [4] (first compound 0.253 µM); 0.639 in assay [4] (first compound 0.8 µM). Further, the relative viability in assay [4] (first compound 2.53 µM) stood at 0.497; in assay [4] (first compound 8 µM), 0.604.

(Values after the supplement of paper PMC10307832.)
